Data published in a melting point compilation (Tetko et al.; mined from patent text by program, amines drawn as free bases though some values may be those of a salt).

First: CCNC(=O)n1nc(Oc2c(Cl)cc(C(F)(F)F)cc2Cl)cc1C(=O)OC
Second: CCCCCS(=O)(=O)NC(=O)/C=C/c1ccc(OCCCOCCOC)cc1Oc1ncc(C(F)(F)F)cc1Cl
The melting point of the first is lower: 88 to 90 °C for the first, 103 to 105 °C for the second.

First: CCOC(=O)c1csc(N2CCSCC2)n1
Second: CCOC(=O)c1cc2c([nH]1)CCCC2
The melting point of the first is higher: 99 to 100 °C for the first, 70 to 72 °C for the second.

First: CCC(CC)n1cc(Cl)nc(N2CCc3cc(Cl)cc(Cl)c32)c1=O
Second: CCN1CCN(C(C)C(=O)NC2(c3ccc4occc4c3)C(=O)Nc3cc(Cl)cc(Cl)c32)CC1 (single isomer, unassigned; (+))
The melting point of the first is higher: 168 to 170 °C for the first, 137 to 138 °C for the second.

First: Oc1ccc(-c2nc(Br)c[nH]2)cc1Cl
Second: O=C(O)c1cc(-n2c(=O)cc(C(F)(F)F)[nH]c2=O)ccc1Cl
The melting point of the first is lower: 225 to 227 °C for the first, 311 to 312 °C for the second.

First: COc1ccc(C(=O)N[C@H]2C[C@@H](c3cc(NC(=O)Cc4cccc5ccccc45)n[nH]3)C2)cc1
Second: COc1ccc(CN2C(C(=O)Nc3ccccn3)=C(O)c3sc4ccccc4c3S2(=O)=O)cc1
The melting point of the first is lower: 176 °C for the first, 188 to 190 °C for the second.

First: CC(=O)N1CCCc2ccc(C(C)NC(=O)C=Cc3ccccc3)cc21 (stereo not given)
Second: CCOC(=O)c1ccccc1CCC(=O)Nc1cccc(/C=C/c2nc(C3CCC3)cs2)c1
The melting point of the first is lower: 65 to 68 °C for the first, 110 to 111 °C for the second.

Compared with `CCn1nc2c(N)nc3ccccc3c2c1CCS(C)(=O)=O`, `Nc1nc2ccccc2c2c1ncn2CCCCNC(=O)c1cccc(C(=O)c2ccccc2)c1` is lower in melting point: 220 to 222 °C for the first, 103 to 105 °C for the second.

First: NC(=O)C1C2C=CC(C2)C1Nc1c(Cl)cnc2[nH]c(-c3ccc4c(c3)CCC3(CCNCC3)O4)nc12 (stereo not given)
Second: CNC(=O)C1(Nc2nc(Nc3cc4c(cc3OC)CCN(CC(=O)N(C)C)CC4)ncc2Cl)CCCC1
The melting point of the first is higher: over 250 °C for the first, 75 to 87 °C for the second.

First: CCN1CCN(CCc2ccc(-c3ccc4c(Nc5cc(OC)c(Cl)cc5Cl)c(C#N)cnc4c3)cc2)CC1
Second: COc1ccc(C2(C)C(=O)c3c(Cl)cc(Cl)cc3N(Cc3ccccc3)C2=O)cc1 (stereo not given)
The melting point of the first is lower: 75 to 78 °C for the first, 159 to 160 °C for the second.

Compared with `CN1CCN(S(=O)(=O)c2cccc(-c3cc(-c4nc(-c5ccc(C(F)(F)F)cc5)cc(C(F)(F)F)n4)ccn3)c2)CC1`, `O=C(O)c1ccc(-c2coc(-c3cccc(C(F)(F)F)c3)n2)cc1` is higher in melting point: 205 °C for the first, 268 to 269 °C for the second.

Compared with `Cc1ccc2c(c1)C(C)(Cl)C(=S)N2` (stereo not given), `CCOc1cc(NC(=S)NS(=O)(=O)c2ccc(C)cc2)ccn1` is lower in melting point: 185 to 187 °C for the first, 152 to 153 °C for the second.

First: CS(=O)(=O)NC1(c2ccc(I)cc2)CC1
Second: NS(=O)(=O)Oc1ccc(I)cc1
The melting point of the first is lower: 101 to 102 °C for the first, 146 to 147 °C for the second.

First: CC(c1ccccc1)N1CC(C(C(N)=O)(c2ccccc2)c2ccccc2)C1 (stereo not given)
Second: O=C(OC(c1ccccc1)c1ccccc1)C(NC=S)c1ccccc1 (stereo not given)
The melting point of the first is higher: 153 to 154 °C for the first, 129 to 130 °C for the second.

First: CCOC(=O)CCC(C)C1CCC2C3C(O)C(CC)C4CC(O)CCC4(C)C3CCC12C (stereo not given)
Second: CCCCCCC1C(=O)NC(C(=O)SCCNC(C)=O)(C(O)C2C=CCCC2)C1(C)O (stereo not given)
The melting point of the first is lower: 55 to 57 °C for the first, 82 °C for the second.

`OCc1ccc2nc3c(cc2c1)-c1cccc2cccc-3c12` and `NC(=O)Oc1ccccc1-c1nc2ccc(OCc3c(F)cccc3F)cc2s1` cannot be ordered by melting point: 215 to 218 °C for the first, 216 °C for the second.

First: O=Cc1cnc2sc3c(n12)CCCCCC3
Second: c1cnc2cc3c(cc2n1)CCNCC3
The melting point of the first is lower: 106 to 107 °C for the first, 114 to 116 °C for the second.

Compared with `O=c1c(Cl)c(Cl)cnn1-c1cc(C(F)(F)F)cc(C(F)(F)F)c1`, `Cc1cc(Oc2cccc(C(F)(F)F)c2)nc(C(=O)O)c1` is lower in melting point: 255 to 262 °C for the first, 75 to 77 °C for the second.

First: C=CCOC(=O)c1ccc(N=Cc2ccc3c(c2Cl)C(C)(C)CCC3(C)C)cc1
Second: CC1(C)CC(=O)C2=C(C1)NC1=C(C(=O)CC(C)(C)C1)C2c1ccc(Cl)c(Cl)c1
The melting point of the first is lower: 80 °C for the first, over 300 °C for the second.

Compared with `O=C(O)C(=O)c1cn2c3c(cccc13)CCC2`, `CC(=O)NC1=NN(c2ccc(Cl)cc2)CC1` is higher in melting point: 152 to 155 °C for the first, 171 to 173 °C for the second.

First: CCOC(=O)COc1ccc(C=CC(=O)O)cc1
Second: CC(=O)Nc1ccc(/C=C/C(=O)/C=C/c2ccc(NC(C)=O)cc2)cc1
The melting point of the first is lower: 154 °C for the first, 253 to 255 °C for the second.

First: CCOC(=O)N1CCC(=C2c3ccc(Cl)cc3CCc3c(On4nnc5ccccc54)ccnc32)CC1
Second: Cc1c(-c2ccncc2)nc2n(c1=O)CCCN2CC(=O)c1ccccc1
The melting point of the first is lower: 182 to 184 °C for the first, 190 to 192 °C for the second.

Compared with `Cc1nnc(NCCN2CCN(c3ncccn3)CC2)c2cc3ccccn3c12`, `CN1CCN(C2=Nc3ccccc3Sc3ccccc32)C[C@H]1Cc1ccccc1` is lower in melting point: 280 to 283 °C for the first, 46 to 63 °C for the second.

Compared with `FC(F)(F)Oc1ccc(-c2ccc(CCl)cn2)cc1`, `Brc1ccc(OCc2ccc3ccccc3n2)cc1` is higher in melting point: 34 to 36 °C for the first, 103 to 105 °C for the second.

First: CN1CC(C(C#N)(c2ccccc2)c2ccccc2)C1
Second: c1ccc(CNCC2CCn3c(nc4ccccc43)S2)cc1 (stereo not given)
The melting point of the first is lower: 113 to 115 °C for the first, 155 to 156 °C for the second.

First: CCCCCCCCCCCCCCCCCCOc1cc(OCCCCc2ccc3cc(O)c(O)cc3c2)cc(N(CC(=O)O)CC(=O)O)c1
Second: CCCCCCCCCCCCCCOc1ccc(NC(=O)Nc2cccc(CCBr)c2)cc1
The melting point of the first is lower: 153 to 155 °C for the first, 164 to 169 °C for the second.

First: CC=CC(=O)C1C(C)C(=O)CCC1(C)C (stereo not given)
Second: CCC(C)C1CCCCC1NC(=O)c1sc(C)nc1C(F)(F)F (stereo not given)
The melting point of the first is lower: 76 to 77 °C for the first, 112 to 113 °C for the second.

Compared with `CC(C)(C)OC(=O)NC1CCCCCC=CC2CC2(C(=O)NS(=O)(=O)C2CC2)NC(=O)C2CC(OC(=O)c3ccc4c(c3)OCO4)CN2C1=O` (stereo not given), `CCOC(=O)c1c(NCC(=O)OCCCC(=O)c2ccccc2)c2c(Cl)cc(Cl)cc2n1C(=O)OC(C)(C)C` is lower in melting point: 153 to 155 °C for the first, 129 to 130 °C for the second.

First: COc1ccc(OC)c(-c2cc3c(Nc4cccc(Cl)c4)ncnc3[nH]2)c1
Second: Clc1ccc2c(c1)C(c1ccccn1)=NCc1ccccc1-2
The melting point of the first is higher: 267 to 268 °C for the first, 153 to 155 °C for the second.

First: NC(=O)N1c2ccccc2C=C([N+](=O)[O-])c2ccccc21
Second: O=C(O)CP(=O)(O)C[C@H](Cc1ccccc1)NC(=O)c1ccccc1
The melting point of the first is higher: 208 to 212 °C for the first, 105 to 107 °C for the second.

First: CCCCn1ccc(C=O)cc1=O
Second: CCCc1nnc(Cc2ccc(N)cc2)o1
The melting point of the first is lower: 36 to 40 °C for the first, 60 to 61 °C for the second.

First: Cc1nc(NC(=O)c2cnn3c(C(F)F)cc(-c4ccc(C(F)(F)F)cc4)nc23)sc1S(=O)(=O)NCCN(C)C
Second: COc1ccc(-c2sc3c(c2CBr)c(=O)c(C(C)=O)cn3Cc2ccccc2F)cc1
The melting point of the first is lower: 217 °C for the first, 226 to 228 °C for the second.

Compared with `Cc1cc2c(c(C)c1[N+](=O)[O-])OCO2`, `CS(=O)(=O)Nc1ccc(F)c(C(=O)C[N+](=O)[O-])c1` is higher in melting point: 75 to 76 °C for the first, 174 to 176 °C for the second.

First: COc1cc(OC)nc(-n2c(OC)nc3ccccc32)n1
Second: COc1ccccc1CCCNc1ccc(C(=O)O)cc1
The melting point of the first is lower: 121 to 122 °C for the first, 155 to 157 °C for the second.

Compared with `C=CCSc1cc(C(=O)O)cc(S(N)(=O)=O)c1-c1ccccc1`, `N#Cc1cccc(-c2nc(-c3ccc(C(=O)O)cc3)cc3cccnc23)c1` is higher in melting point: 78 to 81 °C for the first, over 300 °C for the second.

First: COc1cccc(C(=O)Nc2c[nH]nc2C(=O)NCCC#N)c1
Second: N#CC1=C(c2ccco2)Nc2n[nH]cc2C1c1cccc2nonc12 (stereo not given)
The melting point of the first is lower: 118 to 121 °C for the first, 237 °C for the second.
